Values quoted from earlier work, collected in patent US4603221A, “Process for preparing substituted tetralones” (Ethyl Corporation, priority 1985, dated 1986).

Conditions: method generally in accordance with Gero et al., J. Org. Chem. 16, 1835-1838 (1951)

Structure (SMILES) | pKa Value
Cc1cccc(C)n1 [2,6-lutidine] | 6.62
Cc1ccnc(C)c1 [2,4-lutidine] | 6.79
